Consider two substances from patent publication US9415114B2, “Conformations of divergent peptides with mineral binding affinity” (KAOHSIUNG MEDICAL UNIVERSITY, priority 2011, dated 2016).

The assay can be described thus: Hydroxylapatite column test (retention time on HAp column by HPLC). Format: binding. The settings on record: HAp column 0.7 x 5 cm, eluent 0.5 mM PBS pH 7.4, flow rate 0.25 mL/min, 220 nm; longer retention = higher mineral affinity. The protocol:
Hydroxylapatite Column Test
Using the column which is filling hydroxylapatite particles to evaluate the affinity. The diameter and length of hydroxylapatite column are 0.7 and 5 cm, and experimented by High Performance Liquid Chromatography system. The elute solution is 0.5 mM PBS (pH 7.4), the flow rate is 0.25 mL/min, and the wavelength is 220 nm.

In the case of HO-Gly-(Asp)6-NHAc [L1b], the “retention time in hydroxylapatite column test” value is listed as 13.3 min.

For the substance H2N-(Gly)3-(Asp)3-NHAc [L1c], the “retention time in hydroxylapatite column test” value is reported as 13.0 min.
